# Laboratory results from patent US11512097B2, “Heterocyclic compounds as Delta-5 desaturase inhibitors and methods of use” (Amgen Inc., priority 2019, dated 2022).
# Biological target: T1, Delta-5-Desaturase (D5D), membrane preparations of D5D-overexpressing HEK293 6E cells (Homo sapiens, UniProt O60427)
# T1 construct: expressed in transfected cells; host or cells: HEK293 6E cells (membrane preparation)
# Test: In vitro measurement of Delta-5-Desaturase inhibitory activity using DGLA-CoA and Arachidonyl-CoA mass spectrometric assays
# Assay type: biochemical
# Details: D5D membrane 10 μg/mL, one-hour incubation, average of at least two independent runs
# Method: In Vitro Measurement of Delta-5-Desaturase Inhibitory Activity Using DGLA-CoA and Arachidonyl-CoA Mass Spectrometric Assays Membrane preparations of D5D-overexpressing HEK293 6E cells were prepared in which the total protein concentration was 5.6 mg/mL. Stock D5D membrane preparations were diluted in D5D assay buffer (25 mM 2-amino-2-(hydroxymethyl)-1,3-propanediol, pH 7.5 containing 10 mM MgCl2, 1 mM octyl glucoside (SigmaAldrich O-8001), 1 mM tris(2-carboxyethyl)phosphine hydrochloride (SigmaAldrich 646547)) to a final D5D membrane concentration of 10 μg/mL in an assay plate containing serially diluted test compounds. To 15 μL of this D5D preparation was added 15 μL of a substrate solution (0.25 mM NADH (nicotinamide adenine dinucleotide, Roche Diag. 10107735001), 0.25 mM adenosine triphosphate (SigmaAldrich A-3377), 0.05 mM coenzyme A hydrate (SigmaAldrich C-4282), and 0.01 mM DGLA (dihomo-g-linolenic acid, Sigma E-4504) in the same D5D assay buffer. After one-hour incubation at ambient temperature acetonitrile (30 μL) was added to quench the reaction and plates were centrifuged for 10 min @ 3,000 rpm. Mass spectrometric analysis involved a Rapidfire 360 SPE system coupled to an ABSciex API4000 Triple Quadrupole mass spectrometer using a C18 SPE cartridge (G9203-80105) with ionization in negative mode (solvent A=100% water; solvent B=100% acetonitrile, each solvent containing 5 mM ammonium acetate). DGLA-CoA and Arachidonyl-CoA were detected by multiple reaction monitoring (MRM) of the doubly charged parent ions at m/z 526.6 and 525.6, respectively. […] Sx is value from unknown sample, So is value from DMSO alone and Sc is value from no enzyme well. For CRC analysis, the % of inhibitions were analysed with 4 Parameter Logistic Model or Sigmoidal Dose-Response Model using XLfit (IDBS, Guilford, UK). The potency of the test item was expressed as IC50 nM, corresponding to the test item concentration able to inhibit the 50% of the enzyme maximal response. IC50 values were averaged values determined by at least two independent runs. The results presented in Table 15 have been generated with the in vitro assay described above. This assay may be used to test any of the compounds described herein to assess and characterize a compound's ability to inhibit D5D.
# T1 sequence (O60427 whole entry, species assumed): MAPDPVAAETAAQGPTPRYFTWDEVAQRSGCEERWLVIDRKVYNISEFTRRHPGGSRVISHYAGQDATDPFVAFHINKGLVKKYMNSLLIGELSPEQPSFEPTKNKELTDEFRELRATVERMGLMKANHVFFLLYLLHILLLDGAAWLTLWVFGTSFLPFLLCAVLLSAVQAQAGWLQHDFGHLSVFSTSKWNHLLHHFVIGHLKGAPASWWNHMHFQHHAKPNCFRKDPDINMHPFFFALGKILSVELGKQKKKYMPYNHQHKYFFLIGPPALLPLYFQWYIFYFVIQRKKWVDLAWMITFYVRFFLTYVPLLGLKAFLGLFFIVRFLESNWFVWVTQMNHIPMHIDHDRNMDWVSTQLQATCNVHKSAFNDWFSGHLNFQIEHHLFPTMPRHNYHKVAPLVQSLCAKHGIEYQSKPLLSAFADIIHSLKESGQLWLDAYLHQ
row,SMILES,IC50 [nM]
1,"COCc1cn2c(=O)c(-c3cnn(CC(F)(F)C(F)(F)F)c3)c(C(F)(F)F)nc2n1C [Example 55, 2-(methoxymethyl)-1-methyl-6-[1-(2,2,3,3,3-pentafluoropropyl)-1H-pyrazol-4-yl]-7-(trifluoromethyl)-1H,5H-imidazo[1,2-a]pyrimidin-5-one]",210
2,"Cc1cn2c(=O)c(-c3cnn(CC4COC4)c3)c(C(F)(F)F)nc2n1C [Example 65, 1,2-dimethyl-6-{1-[(oxetan-3-yl)methyl]-1H-pyrazol-4-yl}-7-(trifluoromethyl)-1H,5H-imidazo[1,2-a]pyrimidin-5-one]",815
3,"Cc1csc2nc(C(F)(F)F)c(-c3cnn(CC(F)(F)C(F)(F)F)c3)c(=O)n12 [Example 5, 3-methyl-6-[1-(2,2,3,3,3-pentafluoropropyl)-1H-pyrazol-4-yl]-7-(trifluoromethyl)-5H-[1,3]thiazolo[3,2-a]pyrimidin-5-one]",482
4,"Cc1cn2c(=O)c(-c3cnn(CCC(F)(F)F)c3)c(C(F)(F)F)nc2n1-c1ccccn1 [Example 94, 2-methyl-1-(pyridin-2-yl)-7-(trifluoromethyl)-6-[1-(3,3,3-trifluoropropyl)-1H-pyrazol-4-yl]-1H,5H-imidazo[1,2-a]pyrimidin-5-one]",777
5,"Cn1ncn2c(=O)c(-c3cnn(CC(F)(F)C(F)(F)F)c3)c(C(F)(F)F)nc12 [Example 27, 1-methyl-6-[1-(2,2,3,3,3-pentafluoropropyl)-1H-pyrazol-4-yl]-7-(trifluoromethyl)-1H,5H-[1,2,4]triazolo[4,3-a]pyrimidin-5-one]",2.6
6,"O=c1c(-c2ccc(OCC(F)(F)F)cc2)c(C(F)(F)F)nc2sc(CO)cn12 [Example 33, 2-(hydroxymethyl)-6-[4-(2,2,2-trifluoroethoxy)phenyl]-7-(trifluoromethyl)-5H-[1,3]thiazolo[3,2-a]pyrimidin-5-one]",0.9
7,"Cc1cn2c(=O)c(-c3cnn(CC(F)(F)C(F)(F)F)c3)c(C(F)(F)F)nc2n1CC#N [Example 86, 2-{2-methyl-5-oxo-6-[1-(2,2,3,3,3-pentafluoropropyl)-1H-pyrazol-4-yl]-7-(trifluoromethyl)-1H,5H-imidazo[1,2-a]pyrimidin-1-yl}acetonitrile]",10.9
8,"O=c1c(-c2ccc(OCC(F)(F)F)cc2)c(C(F)(F)F)nc2sccn12 [Example 31, 6-[4-(2,2,2-trifluoroethoxy)phenyl]-7-(trifluoromethyl)-5H-[1,3]thiazolo[3,2-a]pyrimidin-5-one]",2.3
9,"Cn1ccc2nc(C(F)(F)F)c(-c3cnn(CC(F)(F)C(F)(F)F)c3)c(=O)n21 [Example 17, 1-methyl-6-[1-(2,2,3,3,3-pentafluoropropyl)-1H-pyrazol-4-yl]-5-(trifluoromethyl)-1H,7H-pyrazolo[1,5-a]pyrimidin-7-one]",363
10,"O=c1c(-c2cnn(CC(F)(F)C(F)(F)F)c2)c(C(F)(F)F)nc2[nH]c(Cl)cn12 [Example 49, 2-chloro-6-[1-(2,2,3,3,3-pentafluoropropyl)-1H-pyrazol-4-yl]-7-(trifluoromethyl)-1H,5H-imidazo[1,2-a]pyrimidin-5-one]",331
11,"Cc1cn2c(=O)c(-c3cnn(C[C@@H]4CC4(F)F)c3)c(C(F)(F)F)nc2[nH]1 (single isomer, unassigned) [Example 108]",12
12,"Cc1cccc(-n2c(C)cn3c(=O)c(-c4cnn(CC(F)(F)C(F)(F)F)c4)c(C(F)(F)F)nc23)n1 [Example 96, 2-methyl-1-(6-methylpyridin-2-yl)-6-[1-(2,2,3,3,3-pentafluoropropyl)-1H-pyrazol-4-yl]-7-(trifluoromethyl)-1H,5H-imidazo[1,2-a]pyrimidin-5-one]",19.4
13,"Cc1cn2c(=O)c(-c3cnn(CC(F)(F)C(F)(F)F)c3)c(C(F)(F)F)nc2n1-c1cccnc1 [Example 98, 2-methyl-6-[1-(2,2,3,3,3-pentafluoropropyl)-1H-pyrazol-4-yl]-1-(pyridin-3-yl)-7-(trifluoromethyl)-1H,5H-imidazo[1,2-a]pyrimidin-5-one]",2400
14,"COC(=O)n1c(C)cn2c(=O)c(-c3cnn(CC(F)(F)C(F)(F)F)c3)c(C(F)(F)F)nc12 [Example 80, methyl 2-methyl-5-oxo-6-[1-(2,2,3,3,3-pentafluoropropyl)-1H-pyrazol-4-yl]-7-(trifluoromethyl)-1H,5H-imidazo[1,2-a]pyrimidine-1-carboxylate]",54.7
15,"O=c1c(-c2cnn(CCC(F)(F)F)c2)c(C(F)(F)F)nc2sccn12 [Example 8, 7-(trifluoromethyl)-6-[1-(3,3,3-trifluoropropyl)-1H-pyrazol-4-yl]-5H-[1,3]thiazolo[3,2-a]pyrimidin-5-one]",4.6
16,"O=c1c(-c2cnn(CC(F)(F)C(F)(F)F)c2)c(C(F)(F)F)nc2sc(C3CC3)nn12 [Example 11, 2-cyclopropyl-6-[1-(2,2,3,3,3-pentafluoropropyl)-1H-pyrazol-4-yl]-7-(trifluoromethyl)-5H-[1,3,4]thiadiazolo[3,2-a]pyrimidin-5-one]",133
17,"CN1C(=O)C(C)(C)n2c1nc(C(F)(F)F)c(-c1cnn(CC(F)(F)C(F)(F)F)c1)c2=O [Example 36, 1,3,3-trimethyl-6-[1-(2,2,3,3,3-pentafluoropropyl)-1H-pyrazol-4-yl]-7-(trifluoromethyl)-1H,2H,3H,5H-imidazo[1,2-a]pyrimidine-2,5-dione]",> 67000
18,"Cc1cn2c(=O)c(-c3cnn(CC(F)(F)C(F)(F)F)c3)c(C(F)(F)F)nc2n1C1COC1 [Example 91, 2-methyl-1-(oxetan-3-yl)-6-[1-(2,2,3,3,3-pentafluoropropyl)-1H-pyrazol-4-yl]-7-(trifluoromethyl)-1H,5H-imidazo[1,2-a]pyrimidin-5-one]",10.1
19,"COCc1cn2c(=O)c(-c3cnn(CCC(F)(F)F)c3)c(C(F)(F)F)nc2n1C [Example 63, 2-(methoxymethyl)-1-methyl-7-(trifluoromethyl)-6-[1-(3,3,3-trifluoropropyl)-1H-pyrazol-4-yl]-1H,5H-imidazo[1,2-a]pyrimidin-5-one]",160
20,"Cc1cn2c(=O)c(-c3cnn(CC4CC(F)(F)C4)c3)c(C(F)(F)F)nc2n1C [Example 60, 6-{1-[(3,3-difluorocyclobutyl)methyl]-1H-pyrazol-4-yl}-1,2-dimethyl-7-(trifluoromethyl)-1H,5H-imidazo[1,2-a]pyrimidin-5-one]",57.8
21,"O=c1c(-c2ccc(OCC(F)(F)F)cc2)c(C(F)(F)F)nc2sc(Cl)cn12 [Example 34, 2-chloro-6-[4-(2,2,2-trifluoroethoxy)phenyl]-7-(trifluoromethyl)-5H-[1,3]thiazolo[3,2-a]pyrimidin-5-one]",4.8
22,"Cc1cn2c(=O)c(-c3ccc(OCC(F)(F)F)cc3)c(C(F)(F)F)nc2n1CCN(C)C [Example 69, 1-[2-(dimethylamino)ethyl]-2-methyl-6-[4-(2,2,2-trifluoroethoxy)phenyl]-7-(trifluoromethyl)-1H,5H-imidazo[1,2-a]pyrimidin-5-one]",13500
23,"Cc1cn2c(=O)c(-c3cnn(CC(F)(F)C(F)(F)F)c3)c(C(F)(F)F)nc2n1C(C)C [Example 58, 2-methyl-6-[1-(2,2,3,3,3-pentafluoropropyl)-1H-pyrazol-4-yl]-1-(propan-2-yl)-7-(trifluoromethyl)-1H,5H-imidazo[1,2-a]pyrimidin-5-one]",31.5
24,"Cc1cn2c(=O)c(-c3cnn(CCC(F)(F)F)c3)c(C(F)(F)F)nc2[nH]1 [Example 74, 2-methyl-7-(trifluoromethyl)-6-[1-(3,3,3-trifluoropropyl)-1H-pyrazol-4-yl]-1H,5H-imidazo[1,2-a]pyrimidin-5-one]",4.7
25,"O=c1c(-c2cnn(CC(F)(F)C(F)(F)F)c2)c(C(F)(F)F)nc2sc(F)cn12 [Example 7, 2-fluoro-6-[1-(2,2,3,3,3-pentafluoropropyl)-1H-pyrazol-4-yl]-7-(trifluoromethyl)-5H-[1,3]thiazolo[3,2-a]pyrimidin-5-one]",1.3
26,"Cc1cn2c(=O)c(-c3cnn(C[C@H]4CC4(F)F)c3)c(C(F)(F)F)nc2n1C (single isomer, unassigned) [Example 109]",28.6
27,"CC1Cn2c(nc(C(F)(F)F)c(-c3cnn(CC(F)(F)C(F)(F)F)c3)c2=O)S1 (stereo not drawn) [Example 24, 2-methyl-6-[1-(2,2,3,3,3-pentafluoropropyl)-1H-pyrazol-4-yl]-7-(trifluoromethyl)-2H,3H,5H-[1,3]thiazolo[3,2-a]pyrimidin-5-one]",168
